From ChEMBL document CHEMBL5528029, “Design, synthesis, and biological evaluation of novel discoidin domain receptor inhibitors for the treatment of lung adenocarcinoma and pulmonary fibrosis” (Eur J Med Chem, 2024)

Columns and labels:
[1] = target: High affinity nerve growth factor receptor (Homo sapiens) (UniProt P04629); assay: Inhibition of TRK-A (unknown origin) assessed as remaining activity at 1 uM using fluorescein-poly GAT as substrate in presence of ATP by TR-FRET assay relative to control
High affinity nerve growth factor receptor (Homo sapiens), sequence (P04629 33-796 limits assumed): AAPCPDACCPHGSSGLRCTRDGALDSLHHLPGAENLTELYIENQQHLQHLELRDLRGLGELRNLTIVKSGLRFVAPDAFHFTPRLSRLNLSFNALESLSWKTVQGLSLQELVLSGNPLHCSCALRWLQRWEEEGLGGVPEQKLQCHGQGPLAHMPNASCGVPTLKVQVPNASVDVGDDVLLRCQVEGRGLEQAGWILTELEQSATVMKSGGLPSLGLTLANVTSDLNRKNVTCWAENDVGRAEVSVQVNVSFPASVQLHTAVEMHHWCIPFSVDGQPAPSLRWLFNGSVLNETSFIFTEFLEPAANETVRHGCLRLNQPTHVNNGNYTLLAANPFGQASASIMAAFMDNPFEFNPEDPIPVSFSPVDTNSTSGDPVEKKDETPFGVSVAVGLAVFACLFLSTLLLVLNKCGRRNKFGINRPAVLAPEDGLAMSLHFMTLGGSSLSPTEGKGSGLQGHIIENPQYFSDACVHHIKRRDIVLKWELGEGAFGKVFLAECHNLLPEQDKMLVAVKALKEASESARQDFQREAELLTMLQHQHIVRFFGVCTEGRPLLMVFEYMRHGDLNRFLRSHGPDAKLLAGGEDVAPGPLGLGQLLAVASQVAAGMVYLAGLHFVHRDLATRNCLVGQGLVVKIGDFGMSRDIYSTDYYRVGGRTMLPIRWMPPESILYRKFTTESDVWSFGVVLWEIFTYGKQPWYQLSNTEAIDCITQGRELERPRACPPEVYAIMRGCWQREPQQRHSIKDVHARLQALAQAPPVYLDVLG

[2] = target: BDNF/NT-3 growth factors receptor (Homo sapiens) (UniProt Q16620); assay: Inhibition of TRK-B (unknown origin) assessed as remaining activity at 1 uM using fluorescein-poly GAT as substrate in presence of ATP by TR-FRET assay relative to control
BDNF/NT-3 growth factors receptor (Homo sapiens), sequence (Q16620 32-822 limits assumed): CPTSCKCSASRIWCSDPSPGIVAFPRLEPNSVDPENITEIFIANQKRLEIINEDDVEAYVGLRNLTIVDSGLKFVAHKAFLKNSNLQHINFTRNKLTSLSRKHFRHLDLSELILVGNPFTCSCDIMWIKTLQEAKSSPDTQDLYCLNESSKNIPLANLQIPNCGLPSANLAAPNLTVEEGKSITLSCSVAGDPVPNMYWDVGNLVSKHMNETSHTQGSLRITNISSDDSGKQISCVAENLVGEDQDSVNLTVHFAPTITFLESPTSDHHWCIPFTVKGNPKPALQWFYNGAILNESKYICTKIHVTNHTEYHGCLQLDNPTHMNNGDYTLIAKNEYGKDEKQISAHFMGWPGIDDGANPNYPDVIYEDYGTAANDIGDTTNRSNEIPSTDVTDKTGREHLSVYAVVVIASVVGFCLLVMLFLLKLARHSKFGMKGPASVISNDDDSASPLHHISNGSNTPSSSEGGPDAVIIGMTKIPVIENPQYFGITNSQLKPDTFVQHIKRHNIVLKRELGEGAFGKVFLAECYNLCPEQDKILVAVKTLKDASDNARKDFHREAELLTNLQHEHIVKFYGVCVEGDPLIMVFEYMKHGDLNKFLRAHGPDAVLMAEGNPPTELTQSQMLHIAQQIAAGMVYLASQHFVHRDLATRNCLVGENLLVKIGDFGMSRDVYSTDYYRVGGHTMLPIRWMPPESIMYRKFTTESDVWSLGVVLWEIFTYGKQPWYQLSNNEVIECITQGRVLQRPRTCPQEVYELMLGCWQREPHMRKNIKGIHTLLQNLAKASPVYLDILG

[3] = target: T1, Discoidin domain-containing receptor 2 (Homo sapiens) (UniProt Q16832); assay: Inhibition of DDR2 (unknown origin) assessed as remaining activity at 1 uM using fluorescein-poly GAT as substrate in presence of ATP by TR-FRET assay relative to control
T1 sequence (whole entry): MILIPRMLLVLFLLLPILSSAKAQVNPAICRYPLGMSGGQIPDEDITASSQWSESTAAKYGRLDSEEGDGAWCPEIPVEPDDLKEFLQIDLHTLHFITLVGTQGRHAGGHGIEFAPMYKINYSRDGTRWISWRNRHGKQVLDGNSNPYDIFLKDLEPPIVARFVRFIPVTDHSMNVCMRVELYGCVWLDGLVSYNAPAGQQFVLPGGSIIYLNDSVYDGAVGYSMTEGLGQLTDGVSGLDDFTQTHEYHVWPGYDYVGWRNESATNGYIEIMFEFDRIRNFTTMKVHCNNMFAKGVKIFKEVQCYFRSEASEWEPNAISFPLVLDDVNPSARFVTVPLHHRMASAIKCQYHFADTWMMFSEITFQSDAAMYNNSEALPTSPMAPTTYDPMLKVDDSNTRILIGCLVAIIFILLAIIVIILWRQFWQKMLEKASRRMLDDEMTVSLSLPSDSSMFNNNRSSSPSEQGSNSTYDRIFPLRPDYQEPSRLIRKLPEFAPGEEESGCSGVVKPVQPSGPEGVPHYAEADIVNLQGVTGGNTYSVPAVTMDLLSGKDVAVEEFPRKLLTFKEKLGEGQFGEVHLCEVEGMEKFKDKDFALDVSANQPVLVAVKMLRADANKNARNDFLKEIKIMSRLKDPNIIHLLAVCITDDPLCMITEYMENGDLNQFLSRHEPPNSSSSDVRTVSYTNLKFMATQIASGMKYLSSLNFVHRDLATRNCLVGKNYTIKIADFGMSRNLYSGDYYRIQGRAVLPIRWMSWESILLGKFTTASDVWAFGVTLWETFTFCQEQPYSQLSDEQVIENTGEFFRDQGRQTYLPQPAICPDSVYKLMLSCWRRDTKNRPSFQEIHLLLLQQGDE

[4] = target: NT-3 growth factor receptor (Homo sapiens) (UniProt Q16288); assay: Inhibition of TRK-C (unknown origin) assessed as remaining activity at 1 uM using fluorescein-poly GAT as substrate in presence of ATP by TR-FRET assay relative to control
NT-3 growth factor receptor (Homo sapiens), sequence (Q16288 32-839 limits assumed): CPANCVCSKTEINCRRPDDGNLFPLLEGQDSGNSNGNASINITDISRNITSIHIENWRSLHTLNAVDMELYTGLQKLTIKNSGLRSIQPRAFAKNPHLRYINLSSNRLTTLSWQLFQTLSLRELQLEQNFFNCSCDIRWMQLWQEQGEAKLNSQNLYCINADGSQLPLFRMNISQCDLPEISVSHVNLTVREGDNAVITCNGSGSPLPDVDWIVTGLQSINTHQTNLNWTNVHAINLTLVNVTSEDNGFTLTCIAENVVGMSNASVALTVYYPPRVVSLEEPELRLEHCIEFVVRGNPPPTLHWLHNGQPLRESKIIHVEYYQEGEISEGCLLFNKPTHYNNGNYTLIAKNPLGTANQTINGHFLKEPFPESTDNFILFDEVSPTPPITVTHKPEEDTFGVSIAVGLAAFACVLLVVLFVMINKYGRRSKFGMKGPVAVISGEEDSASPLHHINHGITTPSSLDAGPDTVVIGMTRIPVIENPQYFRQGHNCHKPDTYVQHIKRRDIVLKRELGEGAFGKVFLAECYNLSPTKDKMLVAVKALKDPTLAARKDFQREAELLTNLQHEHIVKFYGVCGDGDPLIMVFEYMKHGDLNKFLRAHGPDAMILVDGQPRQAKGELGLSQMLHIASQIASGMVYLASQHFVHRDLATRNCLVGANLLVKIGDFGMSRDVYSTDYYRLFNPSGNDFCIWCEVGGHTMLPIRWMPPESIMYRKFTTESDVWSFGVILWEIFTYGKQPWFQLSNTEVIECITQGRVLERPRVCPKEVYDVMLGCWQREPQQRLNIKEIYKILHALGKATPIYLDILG

Row | Structure (SMILES) | Activity [1] | Activity [2] | Activity [3] | Activity [4]
1 | COc1ccc2c(c1)c(CNC(=O)Nc1ccc(C)cc1)cn2CC(=O)N1CCCC1 | 75.2% | 87.9% | 84.8% | 77.5%
2 | Cc1ccc(NC(=O)NCc2cn(CC(=O)N3CCCC3)c3ccc(F)cc23)cc1 | 101% | 99.5% | 95.4% | 91.2%
3 | COc1ccc2c(c1)c(CNC(=O)Nc1ccccc1Cl)cn2CC(=O)N1CCCC1 | 95.7% | 99.3% | 67.8% | 69.6%
4 | COc1ccc2c(c1)c(CNC(=O)Nc1ccc(F)cc1F)cn2CC(=O)N1CCCCC1 | 84.7% | 70.8% | 74.8% | 68.6%
5 | Cc1ccc(NC(=O)NCc2cn(CC(=O)N3CCOCC3)c3ccc(F)cc23)cc1 | 114% | 83.8% | 72.4% | 111%
6 | CN1CCN(C(=O)Cn2cc(CNC(=O)Nc3ccccc3Cl)c3cc(F)ccc32)CC1 | 81.8% | 89.6% | 73.5% | 90.2%
7 | COc1ccc2c(c1)c(CNC(=O)Nc1ccc(F)cc1F)cn2CC(=O)N1CCN(C)CC1 | 93.1% | 88.9% | 66.5% | 68.8%
8 | O=C(NCc1cn(CC(=O)N2CCCCC2)c2ccc(F)cc12)Nc1ccc(C(F)(F)F)cc1 | 87% | 108% | 70.1% | 105%
9 | COc1ccc(NC(=O)NCc2cn(CC(=O)N3CCN(C)CC3)c3ccc(F)cc23)cc1 | 80% | 104% | 73.5% | 106%
10 | COc1ccc2c(c1)c(CNC(=O)Nc1ccc(C(F)(F)F)cc1)cn2CC(=O)N1CCN(C)CC1 | 96% | 104% | 102% | 106%
11 | O=C(NCc1cn(CC(=O)N2CCOCC2)c2ccc(F)cc12)Nc1ccc(C(F)(F)F)cc1 | 77.5% | 72.2% | 90.2% | 98.3%

Now from value to compound:

Row | Activity [1] | Activity [2] | Activity [3] | Activity [4] | Structure (SMILES)
12 | 78% | 81.5% | 73.8% | 68.6% | O=C(NCc1cn(CC(=O)N2CCCC2)c2ccc(F)cc12)Nc1ccccc1Cl
13 | 91.7% | 97.2% | 54.7% | 86% | COc1ccc2c(c1)c(CNC(=O)Nc1ccccc1Cl)cn2CC(=O)N1CCOCC1
14 | 81.5% | 105% | 74.2% | 93.7% | CN1CCN(C(=O)Cn2cc(CNC(=O)Nc3ccc(C(F)(F)F)cc3)c3cc(F)ccc32)CC1
15 | 74.8% | 87.4% | 64.3% | 68.9% | COc1ccc2c(c1)c(CNC(=O)Nc1ccccc1Cl)cn2CC(=O)N1CCCCC1
16 | 91.7% | 90.4% | 78.2% | 104% | Cc1ccc(NC(=O)NCc2cn(CC(=O)N3CCN(C)CC3)c3ccc(F)cc23)cc1
17 | 99.7% | 97% | 92.5% | 99.7% | Cc1ccc(NC(=O)NCc2cn(CC(=O)N3CCCCC3)c3ccc(F)cc23)cc1
18 | 98.9% | 92.5% | 95.3% | 89% | COc1ccc(NC(=O)NCc2cn(CC(=O)N3CCOCC3)c3ccc(OC)cc23)cc1
19 | 71.8% | 79% | 82.2% | 103% | COc1ccc2c(c1)c(CNC(=O)Nc1ccc(C(F)(F)F)cc1)cn2CC(=O)N1CCOCC1
20 | 77.8% | 73.1% | 74.7% | 60.5% | COc1ccc2c(c1)c(CNC(=O)Nc1ccc(F)cc1F)cn2CC(=O)N1CCOCC1
21 | 101% | 101% | 81.1% | 94.3% | O=C(NCc1cn(CC(=O)N2CCCC2)c2ccc(F)cc12)Nc1ccc(C(F)(F)F)cc1
22 | 98.7% | 108% | 96.2% | 90.9% | COc1ccc2c(c1)c(CNC(=O)Nc1ccc(C)cc1)cn2CC(=O)N1CCN(C)CC1
